Here are results for 23 compounds from ChEMBL document CHEMBL5143709, “Synthesis and characterization of an orally bioavailable small molecule agonist of the apelin receptor” (Bioorg Med Chem, 2022).

Values after ≈ are worked out from the molar mass of the structure shown.

The target of data set [1] is T1, Apelin receptor (Homo sapiens, UniProt P35414).
T1 sequence (P35414 whole entry): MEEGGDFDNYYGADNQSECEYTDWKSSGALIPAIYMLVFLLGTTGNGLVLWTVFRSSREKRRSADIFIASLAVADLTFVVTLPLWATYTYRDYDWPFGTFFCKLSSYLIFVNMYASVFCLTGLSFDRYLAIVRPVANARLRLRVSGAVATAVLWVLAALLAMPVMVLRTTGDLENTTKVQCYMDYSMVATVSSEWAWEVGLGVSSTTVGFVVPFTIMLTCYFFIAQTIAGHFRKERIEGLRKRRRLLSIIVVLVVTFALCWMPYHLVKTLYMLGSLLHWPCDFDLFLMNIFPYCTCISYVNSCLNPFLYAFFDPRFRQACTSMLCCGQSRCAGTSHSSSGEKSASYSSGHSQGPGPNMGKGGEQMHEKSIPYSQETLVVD
Briefly: Agonist activity at human APJ receptor expressed in CHO cells co-expressing Galphaq16 assessed as stimulation of Ca2+ mobilization measured at 1 sec interval for 90 sec by fluorescent Calcium 5-dye based FLIPR-calcium mobilization assay. The class given is functional, cell-based. A general note: Calcium flux is commonly read through the fluorescence of an indicator in the cells.

The target in data set [2] is T1, Apelin receptor. Kind of data set: Agonist activity at human APJ receptor expressed in CHO cells assessed as inhibition of forskolin-induced cAMP accumulation measured after 30 mins by TR-FRET based LANCE cAMP assay. The class given is functional, cell-based. (In general: Cyclic AMP is a second messenger, typically raised through Gs and lowered through Gi signalling.)

A short description of data set [3]: Metabolic stability in Sprague-Dawley rat liver microsomes assessed as parent compound remaining at 1 uM measured after 30 mins in the presence of NADPH by LC-MS analysis. For orientation: Liver microsomes are vesicles of endoplasmic reticulum, rich in cytochrome P450 enzymes.
Data set [4] in a line: Apparent permeability from basolateral to apical side in human Caco-2 cells by LC-MS/MS analysis. The class given is ADME, cell-based.
Data set [5] in a line: Efflux ratio of apparent permeability from basolateral to apical side over apical to basolateral side in human Caco-2 cells by LC-MS/MS analysis. The format is ADME, cell-based.
Data set [6] is described as follows: Apparent permeability from apical to basolateral side in human Caco-2 cells by LC-MS/MS analysis. The class given is ADME, cell-based.
Data set [7] is described as follows: Plasma protein binding in rat by LC-MS/MS analysis. Particulars: read-out: PPB (converted). The class given is ADME, cell-free.
A short description of data set [8]: Solubility of the compound at pH 7.4. The class given is physicochemical. Conditions: buffer.
For data set [9], the target named is T2, Apelin receptor (Homo sapiens) (UniProt P35414).
T2 sequence (whole entry): T1 sequence (P35414 whole entry)
Kind of data set: Agonist activity at human AGTRL1 expressed in CHO-K1 cells assessed as induction of beta-arrestin 2 recruitment by measuring maximal efficacy incubated for 90 mins by PathHunter assay relative to control. The class given is functional, cell-based. Particulars: filed as agonist.

Data set [10] has as its target T1, Apelin receptor. Briefly: Agonist activity at human AGTRL1 expressed in CHO-K1 cells assessed as induction of beta-arrestin 2 recruitment incubated for 90 mins by PathHunter assay. The class given is functional, cell-based.
The nature of data set [11]: Cmax in Sprague-Dawley rat at 10 mg/kg, po measured upto 24 hrs by LC-MS/MS analysis. The class given is ADME, organism-based. Details: dose 10 mg/kg, time < 24 hrs, route po. Particulars: in vivo.
Data set [12] is described as follows: AUC in Sprague-Dawley rat at 10 mg/kg, po measured upto 24 hrs by LC-MS/MS analysis. The class given is ADME, organism-based. More on the design: time < 24 hrs, dose 10 mg/kg, route po. Particulars: in vivo.
Data set [13] is described as follows: Half-life in Sprague-Dawley rat at 10 mg/kg, po measured upto 24 hrs by LC-MS/MS analysis. The class given is ADME, organism-based. Conditions: in vivo.
Data set [14] in a line: Oral bioavailability in Sprague-Dawley rat at 10 mg/kg measured upto 24 hrs by LC-MS/MS analysis. Particulars: in vivo. The format is ADME, organism-based.
Data set [15] can be described thus: MRT in Sprague-Dawley rat at 10 mg/kg, po measured upto 24 hrs by LC-MS/MS analysis. The format is ADME, organism-based. Conditions: in vivo.
A short description of data set [16]: Tmax in Sprague-Dawley rat at 10 mg/kg, po measured upto 24 hrs by LC-MS/MS analysis. Particulars: in vivo. The class given is ADME, organism-based.
Data set [17] in a line: Clearance in Sprague-Dawley rat at 10 mg/kg, po measured upto 24 hrs by LC-MS/MS analysis. The class given is ADME, organism-based. Particulars: in vivo.

The term EC50 denotes the concentration at which the effect is half-maximal. As for `O=C(C[C@H](CCN1CCCCC1)NC(=O)c1cc(-c2ccsc2C(F)(F)F)n(C2CCCC2)n1)NC1CCC1`, the EC50 in [1] amounted to 538 nM.
The same measure, in the same setting: to `O=C(C[C@@H](CN1CCCC(F)(F)C1)NC(=O)c1cc(-c2ccccc2C(F)(F)F)n(C2CCCC2)n1)NC1CCC1` belongs 910 nM; to `CN(C)CC[C@@H](CC(=O)NC1CCC1)NC(=O)c1cc(-c2ccccc2C(F)(F)F)n(C2CCCC2)n1`, 834 nM.
As for `O=C(C[C@H](CCc1ccc(F)cc1)NC(=O)c1cc(-c2ccccc2C(F)(F)F)n(C2CCCC2)n1)NC1CCC1`, the EC50 came out at 103 nM in data set [1] and 15 nM in data set [2].
One may read the fraction remaining as what is left of the initial amount, in per cent. `O=C(C[C@H](CCN1CCCC[C@H]1C(F)(F)F)NC(=O)c1cc(-c2ccccc2C(F)(F)F)n(C2CCCC2)n1)NC1CCC1`: in data set [3], the share remaining at 0.5 h, 1 µM amounted to 6.04%. In addition, the results for the EC50 in [1] and in data set [2] were 31 nM and 6 nM, respectively.
With `CN(C[C@H](CC(=O)NC1CCC1)NC(=O)c1cc(-c2ccccc2C(F)(F)F)n(C2CCCC2)n1)C1CCCCC1`, the EC50 in [1] is 5120 nM.
Turning to `CCc1ccccc1-c1cc(C(=O)N[C@@H](CCN2CCCCC2)CC(=O)NC2CCC2)nn1C1CCCC1`, the amount remaining at 0.5 h, 1 µM in [3] was found to be 76.5%. Moreover, in [2], the EC50 was 7 nM.
As to `CN(C(=O)[C@H](CC(=O)NC1CCC1)NC(=O)c1cc(-c2ccccc2C(F)(F)F)n(C2CCCC2)n1)C1CCCCC1`, in data set [1], the EC50 stood at 879 nM.
With `O=C(C[C@H](CCN1CCCCC1)NC(=O)c1cc(-c2ccccc2C2CC2)n(C2CCCC2)n1)NC1CCC1`, the amount remaining at 0.5 h, 1 µM in data set [3] was 70.1%. For the same compound, the EC50 in data set [2] is 6.4 nM.
For the compound `O=C(C[C@H](CCN1CCCCC1)NC(=O)c1cc(-c2cccc[n+]2[O-])n(C2CCCC2)n1)NC1CCC1`, the EC50 in data set [1] was more than 10000 nM.
One may read the Papp B→A as the apparent permeability from the basolateral to the apical side of a cell layer. For orientation: efflux ratio means the permeability from basolateral to apical divided by that in the opposite direction, in the common usage. With `O=C(C[C@H](CCN1CCCCC1)NC(=O)c1cc(-c2ccccc2C(F)(F)F)n(C2CCCC2)n1)NC1CCC1`, in [3], the share remaining at 0.5 h, 1 µM is 74.6%. For the same compound, the EC50 in data set [2] amounted to 2.4 nM. In data set [4], the Papp B→A was determined as 52 ×10⁻⁶ cm/s. Besides, the efflux ratio in data set [5] came out at 304.
What is called Papp A→B is how fast a substance crosses the layer from the apical side. As to `Cc1cnn(CC[C@@H](CC(=O)NC2CCC2)NC(=O)c2cc(-c3ccccc3C(F)(F)F)n(C3CCCC3)n2)c1`, the EC50 in [2] was determined as 54 nM. The Papp B→A in data set [4] was 24 ×10⁻⁶ cm/s. Also, the efflux ratio in data set [5] turned out to be 3. Also, the Papp A→B in [6] came to 8 ×10⁻⁶ cm/s.
For the compound `O=C(C[C@H](CCN1CCOCC1)NC(=O)c1cc(-c2ccccc2C(F)(F)F)n(C2CCCC2)n1)NC1CCC1`, the results for the EC50 in data set [1] and in [2] were 69 nM and 28 nM, respectively.
Usually solubility stands for the concentration that dissolves in the medium under given conditions. What is called Emax is the size of the effect at its maximum, as opposed to the concentration needed. Regarding `O=C(C[C@H](CCN1CCCC(F)(F)C1)NC(=O)c1cc(-c2ccccc2C(F)(F)F)n(C2CCCC2)n1)NC1CCC1`, in [7], the fraction unbound is 0.005. For the same compound, in data set [3], the amount remaining at 0.5 h, 1 µM stood at 38.7%. In addition, the values for the EC50 in [2] and in [10] were 3.4 nM and 5.4 nM, respectively. Further, the concentration in solution in data set [8] (solubility) was 4 µM (≈ 2.38 µg/mL). Besides, the basolateral-to-apical permeability (Papp B→A) in data set [4] is 36 ×10⁻⁶ cm/s. Also, in data set [9], the maximum response (Emax) amounted to 107%. In addition, in data set [5], the efflux ratio was 1. In addition, the Papp A→B in data set [6] amounted to 33 ×10⁻⁶ cm/s.
Consider `CC(C)CN(C)CC[C@@H](CC(=O)NC1CCC1)NC(=O)c1cc(-c2ccccc2C(F)(F)F)n(C2CCCC2)n1`, for which, in data set [3], the fraction remaining at 0.5 h, 1 µM worked out at 63.6%. Besides, the EC50 in [2] came out at 0.35 nM.
Regarding `CN(CC[C@@H](CC(=O)NC1CCC1)NC(=O)c1cc(-c2ccccc2C(F)(F)F)n(C2CCCC2)n1)C1CCCCC1`, the fraction remaining at 0.5 h, 1 µM in data set [3] is 65.2%. The EC50 was 14 nM in [1] and 2 nM in [2]. Further, the Papp B→A in [4] came out at 68 ×10⁻⁶ cm/s.
In the case of `O=C(C[C@H](CCN1CC2(COC2)C1)NC(=O)c1cc(-c2ccccc2C(F)(F)F)n(C2CCCC2)n1)NC1CCC1`, in [1], the EC50 was determined as 162 nM.
Consider `COc1cccc(F)c1-c1cc(C(=O)N[C@@H](CCN2CCCCC2)CC(=O)NC2CCC2)nn1C1CCCC1`, for which the fraction remaining at 0.5 h, 1 µM in data set [3] amounted to 74.3%. In addition, the EC50 in data set [2] is 5.6 nM.
By Cmax is commonly meant the maximum level reached in the sampled fluid or tissue. As usually defined, the AUC is the area under the concentration-time curve, a measure of exposure. Low readings indicate less exposure, high ones more exposure. A word on the half-life: it is the time in which the quantity being followed falls by half. A low value points to rapid decline. As a reminder, the bioavailability is the share of a dose that reaches the circulation, judged against a reference dose that is usually intravenous. Low values mean poor availability, high ones good availability. A word on the MRT: it is the average time that molecules of a dose stay in the body. One may read the Tmax as the time from dosing to the highest level. The CL/F is clearance divided by bioavailability, as obtained after extravascular dosing. On to `O=C(C[C@H](CCN1CCCC(F)(F)C1)NC(=O)c1cc(-c2ccccc2C(F)(F)F)n(C2CCCC2)n1)Nc1nnn[nH]1`, for which the fraction unbound in data set [7] is less than 0.006. Moreover, the figures for the EC50 in data set [1], in [2] and in data set [10] were 24 nM, 6.5 nM and 463 nM, respectively. The concentration in data set [11] peaked (Cmax) at 1580 ng/mL. This compound also showed an AUC at 24 h in data set [12] of 5850 ng·h/mL. Further, the half-life in [13] is 4.1 h. Also, the bioavailability in data set [14] was more than 95%. For the same compound, the solubility in data set [8] is more than 1000 µM. Moreover, in [4], the Papp B→A worked out at 8 ×10⁻⁶ cm/s. The compound also had an MRT in [15] of 5.1 h. Also, the Tmax in data set [16] came out at 0.4 h. For the same compound, the Emax in data set [9] amounted to 80%. Also, the efflux ratio in data set [5] came to 1. This compound also came in with a CL/F in data set [17] of 28 mL/min/kg. Besides, in data set [6], the Papp A→B stood at 8 ×10⁻⁶ cm/s.
As for `O=C(C[C@H](CCN1CCCCC1)NC(=O)c1cc(-c2cscn2)n(C2CCCC2)n1)NC1CCC1`, the EC50 in data set [1] was more than 10000 nM.
For the compound `CC(F)(F)c1ccccc1-c1cc(C(=O)N[C@@H](CCN2CCCCC2)CC(=O)NC2CCC2)nn1C1CCCC1`, the amount remaining at 0.5 h, 1 µM in [3] amounted to 77.1%. Further, the EC50 in [2] amounted to 4.3 nM.
Turning to `O=C(C[C@@H](CN1CCC(F)(F)C1)NC(=O)c1cc(-c2ccccc2C(F)(F)F)n(C2CCCC2)n1)NC1CCC1`, the EC50 in [1] is 1210 nM.
Same read-out and setting: to `C#Cc1ccccc1-c1cc(C(=O)N[C@@H](CCN2CCCCC2)CC(=O)NC2CCC2)nn1C1CCCC1` belongs 267 nM.
